According to publication PMC7395068, “The evolution of strategies to minimise the risk of human drug-induced liver injury (DILI) in drug discovery and development” (Archives of Toxicology, 2020):
Read-outs that look alike come from different tables or passages of the source.

Columns and labels:
[1] = system: human hepatocytes; details: cited from earlier work
[2] = plasma free fraction; cited from earlier work
[3] = system: hLiMTs; assay: Combined HCI (HCS) and cellular ATP 3D assay in hLiMTs; details: for AC50 / minimal effective concentration: Homo sapiens; for DILI prediction hLiMTs (HCS-MEC): Microtissue model structural based (HCI), combined HCS and ATP, MEC < 25 × Cmax.tot cut-off; for hLiMTs <25x Avg Cmax ATP / hLiMTs <100x Avg Cmaxu ATP: ATP endpoint; for hLiMTs <25x Avg Cmax ATP / hLiMTs <25x Avg Cmax HCS / hLiMTs <25x Avg Cmax All: cut-off <25x Avg Cmax; for hLiMTs <100x Avg Cmaxu ATP / hLiMTs <100x Avg Cmaxu HCS / hLiMTs <100x Avg Cmaxu All: cut-off <100x Avg Cmaxu; for hLiMTs <25x Avg Cmax HCS / hLiMTs <100x Avg Cmaxu HCS: HCS endpoints; for hLiMTs <25x Avg Cmax All: all endpoints (ATP and HCS); for hLiMTs Cmax max All / hLiMTs Cmax min All / hLiMTs <10 uM All / hLiMTs <100x Avg Cmaxu All: all endpoints; for hLiMTs Cmax max All: Cmax max used; for hLiMTs Cmax min All: Cmax min used; for hLiMTs <10 uM All: cut-off <10 uM
[4] = system: hLiMTs; details: cited from earlier work
[5] = cited from earlier work
[6] = system: PHH; details: cited from earlier work
[7] = cited from earlier work; remark: listed apart in the source
[8] = system: HepG2 C3A spheroid, BSEP, Glu/Gal in HepG2 cells, bioactivation; details: cited from earlier work
[9] = system: THLE or HepG2 cells, isolated mitochondria, BSEP; details: cited from earlier work
[10] = system: PHH spheroids; details: cited from earlier work; for hLiMTs ATP <20 x Cmax: In vitro Assay, ref Vorrink 2018
[11] = Plasma free fraction (fu) and unbound Cmax (Cmax,u); format: in vitro ADME, human; details: unbound plasma Cmax
Experimental: The prediction of DILI severity was evaluated further using the 3D combined HCI assays using plasma-free fraction. The majority of fu values were obtained from literature, when unavailable in-house prediction was utilised. Unbound plasma Cmax concentrations (Cmax,u) were derived by multiplying total plasma Cmax with the corresponding free fraction (fu) for each compound.

[12] = system: HepaRG spheroids; assay: Combined HCI (HCS) and cellular ATP 3D assay in HepaRG spheroids; details: for HepaRG <25x Avg Cmax ATP / HepaRG <100x Avg Cmaxu ATP: ATP endpoint; for HepaRG <25x Avg Cmax ATP / HepaRG <25x Avg Cmax HCS / HepaRG <25x Avg Cmax All: cut-off <25x Avg Cmax; for HepaRG <100x Avg Cmaxu ATP / HepaRG <100x Avg Cmaxu HCS / HepaRG <100x Avg Cmaxu All: cut-off <100x Avg Cmaxu; for HepaRG <25x Avg Cmax HCS / HepaRG <100x Avg Cmaxu HCS: HCS endpoints; for HepaRG <25x Avg Cmax All: all endpoints (ATP and HCS); for HepaRG Cmax max All / HepaRG Cmax min All / HepaRG <10 uM All / HepaRG <100x Avg Cmaxu All: all endpoints; for HepaRG Cmax max All: Cmax max used; for HepaRG Cmax min All: Cmax min used; for HepaRG <10 uM All: cut-off <10 uM; for AC50 / minimal effective concentration: Homo sapiens; for HepaRG <25x Avg Cmax ATP / HepaRG <100x Avg Cmaxu ATP / HepaRG <25x Avg Cmax HCS / HepaRG <100x Avg Cmaxu HCS / HepaRG <25x Avg Cmax All / HepaRG Cmax max All / HepaRG Cmax min All / HepaRG <10 uM All / HepaRG <100x Avg Cmaxu All / AC50 / minimal effective concentration: HepaRG; for DILI prediction HepaRG spheroids (HCS-MEC): Microtissue model structural based (HCI), combined HCS and ATP, MEC < 25 × Cmax.tot cut-off
[13] = system: isolated mouse liver mitochondria; details: In vitro Assay; ref Porceddu 2012; cited from earlier work
[14] = system: HepG2 cells, primary human hepatocytes; details: In vitro Assay; ref Garside 2014; cited from earlier work
[15] = In vitro Assay, ref Proctor 2017
[16] = Modeled in vitro assays (cytotoxicity, mitochondrial dysfunction, BSEP), ref Aleo et al. 2019

CCN(CC)CC#CCOC(=O)C(O)(c1ccccc1)C1CCCCC1 (stereo not drawn) [oxybutynin]
DILI in vitro assay prediction, Xu (2008) [1]: -VE | Structural based (HCI) [1]: -VE | fu [2]: 0.030 | AC50 ([3]; read-out: HCS endpoint AC50): 6.06 µM | minimal effective concentration ([3]; read-out: HCS endpoint MEC): 2.11 µM | DILI prediction hLiMTs (HCS-MEC) [3]: -VE | hLiMTs <25x Avg Cmax ATP [3]: -ve | hLiMTs <100x Avg Cmaxu ATP [3]: -ve | hLiMTs <25x Avg Cmax HCS [3]: -ve | hLiMTs <100x Avg Cmaxu HCS [3]: -ve | hLiMTs <25x Avg Cmax All [3]: -ve | hLiMTs Cmax max All [3]: -ve | hLiMTs Cmax min All [3]: -ve | hLiMTs <10 uM All [3]: +ve (<10 uM) | hLiMTs <100x Avg Cmaxu All [3]: -ve | hLiMTs ATP <100uM [4]: -VE | hLiMTs/100uM, Proctor (2017) [4]: -VE | Assigned DILI category ([5]; in vivo): 1 | In vivo DILI ([5]; in vivo): -VE | PHH ATP <100uM [6]: -VE | PHH/100uM, Proctor (2017) [6]: -VE | DILI +VE (5-8), DILI -VE (-4) ([7]; in vivo): -VE | DILI severity category (Chen et al. [2016]) ([7]; in vivo): No | Bayesian Machine Learning DILI prediction, Williams (2019) [8]: -VE | Rule of Two hybrid HRM Score ≥8, Aleo (2019) [9]: -VE | hLiMTs ATP <20 x Cmax [10]: -VE | DILI in vitro assay prediction, Vorrink (2018) [10]: -VE | Human plasma Cmax,u [11]: 1 nM | HepaRG <25x Avg Cmax ATP [12]: -ve | HepaRG <100x Avg Cmaxu ATP [12]: -ve | HepaRG <25x Avg Cmax HCS [12]: -ve | HepaRG <100x Avg Cmaxu HCS [12]: -ve | HepaRG <25x Avg Cmax All [12]: -ve | HepaRG Cmax max All [12]: -ve | HepaRG Cmax min All [12]: -ve | HepaRG <10 uM All [12]: -ve | HepaRG <100x Avg Cmaxu All [12]: -ve | AC50 ([12]; read-out: ATP endpoint AC50): 28.5 µM | minimal effective concentration ([12]; read-out: ATP endpoint MEC): 16.1 µM | AC50 ([12]; read-out: HCS endpoint AC50): 64.5 µM | minimal effective concentration ([12]; read-out: HCS endpoint MEC): 10.3 µM | DILI prediction HepaRG spheroids (HCS-MEC) [12]: -VE | in vitro data EC2<=1x Cmax [13]: -VE

C1CCC(C(CC2CCCCN2)C2CCCCC2)CC1 (stereo not drawn) [perhexiline]
Structural based (HCI) ([1]; In vitro Assay, ref Xu 2008): +VE | DILI in vitro assay prediction, Xu (2008) ([1]; Structural based (HCI), human hepatocytes, ref Xu et al. 2008): +VE | fu [2]: 0.100 | AC50 ([3]; read-out: ATP endpoint AC50): 1.69 µM | minimal effective concentration ([3]; read-out: ATP endpoint MEC): 1.49 µM | AC50 ([3]; read-out: HCS endpoint AC50): 1.75 µM | minimal effective concentration ([3]; read-out: HCS endpoint MEC): 0.354 µM | DILI prediction hLiMTs (HCS-MEC) [3]: +VE (MEC < 25 × Cmax.tot cut-off) | hLiMTs <25x Avg Cmax ATP [3]: +ve | hLiMTs <100x Avg Cmaxu ATP [3]: +ve (<100x Avg Cmaxu) | hLiMTs <25x Avg Cmax HCS [3]: +ve | hLiMTs <100x Avg Cmaxu HCS [3]: +ve (<100x Avg Cmaxu) | hLiMTs <25x Avg Cmax All [3]: +ve | hLiMTs Cmax max All [3]: +ve | hLiMTs Cmax min All [3]: +ve | hLiMTs <10 uM All [3]: +ve (<10 uM) | hLiMTs <100x Avg Cmaxu All [3]: +ve (<100x Avg Cmaxu) | hLiMTs ATP <100uM [4, 15]: +VE (IC50 threshold of 100 µM) | hLiMTs/100uM, Proctor (2017) ([4]; hLiMTs, ATP, IC50 threshold 100 µM, ref Proctor et al. 2017): +VE (IC50 threshold of 100 µM) | Assigned DILI category ([5]; Chen et al. 2016 or literature alignment, ref Chen et al. 2016): 3 | In vivo DILI ([5]; […]): +VE | In vivo DILI ([5]; ref Aleo 2019): +VE | In vivo DILI ([5]; ref Garside 2014): +VE | In vivo DILI ([5]; ref Porceddu 2012): +VE | In vivo DILI ([5]; ref Proctor 2017): +VE | In vivo DILI ([5]; ref Vorrink 2018): +VE | In vivo DILI ([5]; ref Williams 2019): +VE | In vivo DILI ([5]; ref Xu 2008): +VE | PHH/100uM, Proctor (2017) ([6]; 2D PHH, ATP, IC50 threshold 100 µM, ref Proctor et al. 2017): +VE (IC50 threshold of 100 µM) | PHH ATP <100uM [6, 15]: +VE (IC50 threshold of 100 µM) | DILI severity category (Chen et al. [2016]) ([7]; LTKB DILIrank category, ref Chen et al. 2016): Most | DILI severity category (Chen 2016) ([7]; human DILI classification, LTKB DILIrank, ref Chen et al. 2016): Most | DILI severity category ([7]; human DILI severity, ref Chen et al.): Most | DILI +VE (5-8), DILI -VE (-4) ([7]; ref Chen 2016): +VE | DILI severity category ([7]; ref Chen 2016): vMost-DILI-Concern | Bayesian Machine Learning DILI prediction, Williams (2019) ([8]; Bayesian modeling, ref Williams et al. 2019): +VE | Bayesian Machine Learning ([8]; In vitro Assay, ref Williams 2019): +VE | Partition Hybrid HRM Score ([9]; In vitro Assay, ref Aleo 2019): +VE | Ro2 Hybrid HRM Score ([9]; In vitro Assay, ref Aleo 2019): +VE | Partition Hybrid HRM Score ≥4, Aleo (2019) [9, 16]: +VE (Partition Hybrid HRM Score ≥4) | Partition Hybrid HRM Score ≥8, Aleo (2019) [9, 16]: +VE (Partition Hybrid HRM Score ≥8) | Rule of Two hybrid HRM Score ≥3, Aleo (2019) [9, 16]: +VE (Rule of Two hybrid HRM Score ≥3) | Rule of Two hybrid HRM Score ≥8, Aleo (2019) [9, 16]: +VE (Rule of Two hybrid HRM Score ≥8) | hLiMTs ATP <20 x Cmax [10]: +VE (IC20 < 20 × Cmax.tot cut-off) | DILI in vitro assay prediction, Vorrink (2018) ([10]; PHH spheroids, ATP, 14 days, IC20 < 20 × Cmax.tot, ref Vorrink et al. 2018): +VE (IC20 < 20 × Cmax.tot cut-off) | HepaRG <25x Avg Cmax ATP [12]: +ve | HepaRG <100x Avg Cmaxu ATP [12]: +ve (<100x Avg Cmaxu) | HepaRG <25x Avg Cmax HCS [12]: +ve | HepaRG <100x Avg Cmaxu HCS [12]: +ve (<100x Avg Cmaxu) | HepaRG <25x Avg Cmax All [12]: +ve | HepaRG Cmax max All [12]: +ve | HepaRG Cmax min All [12]: +ve | HepaRG <10 uM All [12]: +ve (<10 uM) | HepaRG <100x Avg Cmaxu All [12]: +ve (<100x Avg Cmaxu) | AC50 ([12]; read-out: ATP endpoint AC50): 3.69 µM | minimal effective concentration ([12]; read-out: ATP endpoint MEC): 1.76 µM | AC50 ([12]; read-out: HCS endpoint AC50): 6.32 µM | minimal effective concentration ([12]; read-out: HCS endpoint MEC): 0.693 µM | DILI prediction HepaRG spheroids (HCS-MEC) [12]: +VE (MEC < 25 × Cmax.tot cut-off) | in vitro data EC2<=1x Cmax [13]: +VE | in vitro data EC20<=2uM [13]: +VE | Cluster 1-6 +VE Assay [14]: +VE
